How the values were obtained:
FaDu cell line = assay: In-vitro clonogenic assay (Compound A alone and with radiation); type: cell-based, human; conditions: 3500 cells/well, 1 μM Compound A for 48 h and 96 h; colonies could not be counted
[1] = test system: Head and Neck carcinoma (FaDu) xenograft; assay: In-vivo xenograft study, growth inhibition; conditions: FaDu xenograft in SCID mice
Text: The assay can be carried out according to the method described in Clinical Cancer Research, 2003, 9, 6052-6061; the disclosure of which is incorporated by reference for the teaching of the assay. The in-vivo studies can be carried out by using Xenograft models in Severe combined immune deficiency (SCID) mice strain-CBySmn.CB17-Prkdc^scid/J, by the method described below. The statistically significant number of mice per group (n=6) is chosen in order to be able to statistically evaluate the study data. Six to eight weeks old SCID mice were used. Head and neck cancer cells are grown in MEM medium containing 10% fetal calf serum in 5% CO2 incubator at 37° C. Cells are pelleted by centrifugation at 1000 rpm for 10 minutes. […] Body weight for all the groups is recorded for the entire period. Tumor size and other signs of toxicity (external) is recorded every day. […] Tumor growth in compound treated animals is calculated as T/C (Treated/Control)×100% and growth inhibition percent (GI %) was [100−T/C %] […] Treatment is continued for 18 days as mentioned in study design. • Tumor weight in milligram is calculated using the formula for a prolate ellipsoid: Tumor weight (mg)=Length (mm)×[Breadth (mm)^2]×0.5 • Treated to control ratio (T/C %) on a given day is calculated using the formula: [formula] […]

Question: How did the “Radiation response in clonogenic assay (visual)” value (FaDu cell line) turn out when `CN1CC[C@@H](c2c(O)cc(O)c3c(=O)cc(-c4ccccc4Cl)oc23)[C@@H]1CO.Cl` [Compound A, (+)-trans-2-(2-Chlorophenyl)-5,7-dihydroxy-8-(2-hydroxymethyl-1-methyl-pyrrolidin-3-yl)-chromen-4-one hydrochloride] was run?
Answer: visual enhancement in radiation response

Question: And the “Average % growth inhibition (% GI) with respect to control group” value ([1]; Only Compound A, 35 mpk i.p. everyday for 18 days)?
Answer: 42%

Question: What about the “Average % growth inhibition (% GI) with respect to control group” value ([1]; Radiation (3 Gy twice weekly, total 15 Gy) + Compound A 35 mpk i.p. everyday for 18 days) of the same compound?
Answer: 75%

— patent US8895605B2, “Pyrrolidine-substituted flavones as radio-sensitizers for use in the treatment of cancer” (Piramal Enterprises Limited, priority 2009, dated 2014)
